Structures are written as SMILES. Peptide text beside a SMILES is read from it.

By logP is commonly meant the decadic logarithm of the partition coefficient of the neutral form, usually between octanol and water. As for `Cc1nc(N)nc(N)c1C12CC3CC(CC(C3)C1)C2`, the logP is 2.64.
The figure for `CC(C)NC(C)(C)C` is 1.56.
To `O=C(OCc1ccccc1)n1c(=O)[nH]cc(F)c1=O` belongs 1.42; to `ClCc1cccc(CCl)c1`, 2.72.
To `CCCCC[C@H](O)/C=C/[C@H]1[C@H](O)CC(=O)[C@@H]1C/C=C\CCCC(=O)O` belongs 2.82; to `O=[N+]([O-])c1cc(Cl)c(O)c(Cl)c1`, 2.94; to `CCN(CC)CCOC(=O)C=Cc1ccc(OC)cc1`, 3.55.
`CCOC(=O)c1cccs1` displayed a logP of 2.33.
For the compound `COc1ccc(C=CC(=O)O)cc1`, the logP stood at 2.68.
`CNC(=O)N(C)c1ccccc1`: the logP is 1.02.
To `CCC(O)CC` belongs 1.21; to `CCC(=O)OC1(c2ccccc2)CC(C)N(C)CC1C` (stereo not drawn), 3.13.
The figure for `CCOC(=O)C(=O)OCC` is 0.56; for `O=C(CNC(=O)c1ccccc1)Oc1cccc([N+](=O)[O-])c1` it is 2.46; for `C[Se]c1ccccc1` it is 2.87.
The figure for `CON(C)C(=O)Nc1ccc(N)cc1` is -0.16; for `C=CCC1(CC)C(=O)NC(=O)N(C)C1=O` (stereo not drawn) it is 1.35; for `CN(C)C(N(C)C)=S(I)c1ccc(O)cc1` (stereo not drawn) it is -0.88.
Compound `CC(=O)Nc1ccc(O)cc1C` had a logP of 0.17.
The figure for `COC(=O)NS(=O)(=O)c1ccc(N)cc1` is -0.27; for `CNC(=O)Oc1cccc(C=O)c1` it is 0.92; for `COCCOC` it is -0.21.
In turn, `S=C(N/N=C/c1cc[nH]c1)Nc1ccccc1` registered a log partition coefficient (logP) of 3.73.
Turning to `O=C1OC(=O)c2ccccc21`, the logP was 1.6.
The figure for `CC(C)C(=O)Nc1ccccc1` is 1.95.
To `NS(=O)(=O)c1nc2ccccc2s1` belongs 1.33.
To `CC(C)COC(N)=O` belongs 0.65; to `CNC(=O)Oc1cc(C)ccc1C(C)(C)C`, 3.14.
In turn, `O=[N+]([O-])c1nccn1CC(O)CN1CCCCC1` (stereo not drawn) showed a logP of 1.
The compound `CCCCCC=O` yielded a logP of 1.78.
The figure for `NC(N)=O` is -2.11; for `O=C(O)CCC(=O)c1ccc(-c2ccccc2)cc1` it is 3.2.
To `CC(C)(C)CO` belongs 1.31.
To `c1ccc2c(c1)ccc1ccccc12` belongs 4.46; to `ClCCOCCCl`, 1.29.
In the case of `Fc1cccc(C2CNCCO2)c1` (stereo not drawn), the logP is 1.42.
The figure for `CC(=O)Nc1ncnc2c1ncn2C` is -0.41; for `NC(=S)c1ccccc1` it is 1.49; for `Nc1ccccc1Cl` it is 1.9.
The figure for `O=[N+]([O-])c1ccc(Br)cc1` is 2.55; for `COc1c(C)cccc1C` it is 3.02.
As for `CC(=O)c1ccc2cccccc1-2`, the logP stood at 2.87.
The figure for `CCCCNC(N)=O` is 0.41.
The figure for `O=CC(Cl)(Cl)Cl` is 0.99; for `OC(c1ccccc1)(c1cncnc1)c1ccc(Cl)cc1Cl` (stereo not drawn) it is 2.56.
The figure for `NC(CCCc1ccccc1)C(=O)O` (stereo not drawn) is -0.36; for `CCC1COC(Cn2cncn2)(c2ccc(-c3ccccc3)cc2)O1` (stereo not drawn) it is 3.71.
Turning to `CN1CCC(CN2c3ccccc3Sc3ccccc32)C1` (stereo not drawn), the logP is 5.23.
For the compound `CC(=O)OCCc1ccccc1`, the logP was determined as 2.3.
To `OCC1OC(OCc2ccccc2)C(O)C(O)C1O` (stereo not drawn) belongs -0.7; to `N#CCCl`, 0.45.
For the compound `CCC(=O)O[C@]1(c2ccccc2)CCN(C)C[C@@H]1C`, the logP is 2.83.
To `CCC(C)NC(=O)C(=Cc1ccccc1)SC` (stereo not drawn) belongs 3.03.
`CN(C)C(=O)OCc1ccc(C#N)cc1` showed a logP of 1.67.
With `OCCCc1nc2ccccc2[nH]1`, the logP turned out to be 1.25.
The figure for `CCn1nnc2ccccc21` is 1.58; for `CC(=O)NCC(=O)N[C@@H](Cc1ccccc1)C(N)=O` (Ac-Gly-Phe-NH2) it is -0.56; for `COc1ccc(N)cc1` it is 0.95.
To `Nc1ccccn1` belongs 0.48; to `CCC(C)C(NC(=O)C(Cc1ccccc1)NC(C)=O)C(=O)NCC(N)=O` (stereo not drawn) (Ac-Phe-Ile-Gly-NH2; configuration not given here), 0.34.
The figure for `COC(=O)Cn1cnc([N+](=O)[O-])n1` is -0.38; for `O=C(O)c1cccc(F)c1` it is 2.15.
With `CCCCCc1ccccc1`, the logP came out at 4.9.
To `COc1ccc(C(N)=O)cc1` belongs 0.86; to `CCCN(CC)C(CC)C(=O)Nc1c(C)cccc1C` (stereo not drawn), 3.69.
The figure for `CCS(=O)(=O)CCn1c([N+](=O)[O-])cnc1C` is -0.35; for `CCOC(=O)C(=Cc1cccc(F)c1)C(C)=O` it is 2.46; for `Cc1n[nH]c(C(=O)NCCc2ccccc2)c1[N+](=O)[O-]` it is 1.82.
On to `CC1(C)N=C(N)N=C(N)N1c1ccccc1`, for which the logP was 0.28.
The figure for `CCCCc1ccc(S(N)(=O)=O)cc1` is 2.45.
On to `[N-]=[N+]=Nc1ccccc1`, for which the logP came out at 2.59. The logP values of the last two compounds are within 0.2 log units of each other.
The figure for `CC(=O)C(Cc1ccccc1)C(C)=O` is 1.89; for `C=CC=CCC` it is 3.16; for `O=C(O)c1ccccc1Oc1ccccc1` it is 3.11.
The figure for `CCCCCCCCOc1ccccc1NC(=O)OCCN1CCCCC1` is 6.36; for `CC(C)OC(=O)C(C(=O)OC(C)C)=C1SCCS1=O` (stereo not drawn) it is 1.6.
The figure for `CC/C(=C\c1ccccc1)[N+](=O)[O-]` is 2.86; for `Clc1ccc(Cl)cc1` it is 3.44; for `Nc1ccccc1[N+](=O)[O-]` it is 1.85.
On to `N#Cc1ccccc1N`, for which the logP is 1.4.
To `NC(C(=O)O)c1ccccc1` (stereo not drawn) belongs -1.7; to `c1ccc2c(c1)ccc1ncccc12`, 3.43.
Take `CC(C)c1cc([N+](=O)[O-])cc([N+](=O)[O-])c1O`: the logP came to 3.1.
As for `CCCCCCCCCCNC(=O)c1[nH]nc(C)c1[N+](=O)[O-]`, the logP came out at 4.48.
`NC(=O)c1cccc(O)c1` displayed a logP of 0.39.
The figure for `NS(=O)(=O)c1cc2c(cc1Cl)NC(CCl)NS2(=O)=O` (stereo not drawn) is 0.11.
The figure for `Clc1cccc2cccnc12` is 2.44.
As for `O=CNc1ccc(Cl)cc1`, the logP amounted to 2.04.
The figure for `O=NN(CCCl)C(=O)Nc1ccccc1` is 2.49; for `CN(CC(O)COc1ccccc1)CC(O)COc1ccccc1` (stereo not drawn) it is 2.92.
The figure for `C#CCn1cncc1[N+](=O)[O-]` is 0.52.
The figure for `Oc1c(F)cc(Cn2cc[nH]c2=S)cc1F` is 1.08; for `CCOP(=S)(NC(C)C)Oc1ccccc1C(=O)OC(C)C` (stereo not drawn) it is 4.12; for `c1cc2ccc3ccc4ccc5cccc6c(c1)c2c3c4c56` it is 6.63.
Regarding `Cc1n[nH]c(C(=O)N2CCCCCC2)c1[N+](=O)[O-]`, the logP is 1.15.
The figure for `CN(CC(C)(C)C)N=O` is 1.34.
The figure for `Cc1ccc(S(I)=C(N(C)C)N(C)C)c([N+](=O)[O-])c1` (stereo not drawn) is 0.23; for `Cc1[nH]cnc1CSCCNc1cccc(=O)[nH]1` it is 0.79.
